In patent US7195918B2 (priority 2003, dated 2007):

How the values were obtained:
A. succinogenes 130Z = experiment: Antibiotic minimum inhibitory concentrations: growth of A. succinogenes 130Z in liquid medium A with antibiotics; assay type: cell-based, Actinobacillus succinogenes; conditions: 37° C.; for OD660 after 7 days culture: 5 μg/ml antibiotic; for antibiotic concentration in whose presence no growth was detected / antibiotic concentration in whose presence very slow growth was observed / antibiotic concentration in whose presence A. succinogenes 130Z grew perfectly well: 7 days, OD660
Protocol: Antibiotic minimum inhibitory concentrations. To determine the sensitivity of A. succinogenes 130Z to antibiotics, the growth of A. succinogenes 130Z was tested in medium A (liquid medium) containing a series of antibiotics commonly used in bacteriology. One ml of 130Z preculture was inoculated into 9 ml of medium A containing each antibiotic and incubated at 37° C. for 7 days. Cell growth was followed by measuring OD660.
Resistance of A. succinogenes to antibiotics. A. succinogenes 130Z grew perfectly well in the presence of 50 μg/ml kanamycin or 30 μg/ml streptomycin. […] No growth was detected in the presence of 10 μg/ml ampicillin, 1 μg/ml chloramphenicol, 5 μg/ml tetracycline, or 10 μg/ml erythromycin. A. succinogenes is sensitive to low concentrations of ampicillin, chloramphenicol, erythromycin, and tetracycline, so the corresponding resistance genes (i.e., Amp^R, Cm^R, Tet^R, and Ery^R) could be used as selection markers on plasmids used to transform A. succinogenes. We discovered that the Tn3 Amp^R gene carried by pGZRS-19 is naturally expressed in A. succinogenes.

[1] = tested on: A. succinogenes 130Z cells harboring pLGZ921 and pLGZ922; experiment: Growth of plasmid-harboring A. succinogenes 130Z on TS-agar plates with tetracycline or chloramphenicol; assay type: cell-based, Actinobacillus succinogenes
From the text: Expression of Tet^R and Cm^R in A. succinogenes. We need several markers to conveniently engineer A. succinogenes. One can be used to label a gene deletion, while another one can be used to select for the maintenance of a recombinant gene on a plasmid replicon. To determine whether, once expressed, Cm^R and Tet^R could be used as selective markers in A. succinogenes, the Tn9 Cm^R and Tn10 Tet^R genes were cloned into pLGZ920 under control of the A. succinogenes pckA promoter, yielding plasmids pLGZ921 and pLGZ922, respectively. After electroporation, A. succinogenes 130Z cells harboring pLGZ921 and pLGZ922 were spread on TS-agar (30 g/l TS, 10 g/l glucose) plates containing variable amounts of tetracycline and chloramphenicol (FIG. 9). Strains […] plated on chloramphenicol plates and […] plated on tetracycline plates were used as the negative controls. […] In contrast, strain […] grew on plates containing up to 5.0 μg/ml tetracycline. Chloramphenicol-sensitive 130Z(pLGZ921) strain grew on plates containing up to 0.4 μg/ml […], but not on plates containing higher chloramphenicol concentrations. Strain […] grew on plates containing up to 5.0 μg/ml chloramphenicol.

SMILES | OD660 after 7 days culture (A. succinogenes 130Z) | antibiotic concentration in whose presence no growth was detected (A. succinogenes 130Z) | antibiotic concentration in whose presence very slow growth was observed (A. succinogenes 130Z) | antibiotic concentration in whose presence A. succinogenes 130Z grew perfectly well (A. succinogenes 130Z) | antibiotic concentration up to which strain 130Z(pLGZ922) grew on plates [1]
CC1(C)S[C@@H]2[C@H](NC(=O)[C@H](N)c3ccccc3)C(=O)N2[C@H]1C(=O)O [ampicillin] | approximately 0.05 | 10 µg/mL | 5 µg/mL |  | 
O=C(N[C@H](CO)[C@H](O)c1ccc([N+](=O)[O-])cc1)C(Cl)Cl [chloramphenicol] |  | 1 µg/mL |  |  | 
CC[C@H]1OC(=O)[C@H](C)[C@@H](O[C@H]2C[C@@](C)(OC)[C@@H](O)[C@H](C)O2)[C@H](C)[C@@H](O[C@@H]2O[C@H](C)C[C@H](N(C)C)[C@H]2O)[C@](C)(O)C[C@@H](C)C(=O)[C@H](C)[C@@H](O)[C@]1(C)O [erythromycin] | approximately 0.05 | 10 µg/mL | 5 µg/mL |  | 
NC[C@H]1O[C@H](O[C@H]2[C@H](O)[C@@H](O[C@H]3O[C@H](CO)[C@@H](O)[C@H](N)[C@H]3O)[C@H](N)C[C@@H]2N)[C@H](O)[C@@H](O)[C@@H]1O [kanamycin] |  |  |  | 50 µg/mL | 
[H]/N=C(/N)N[C@H]1[C@H](O)[C@@H](O)[C@H](O[C@@H]2O[C@@H](C)[C@](O)(C=O)[C@H]2O[C@@H]2O[C@@H](CO)[C@H](O)[C@@H](O)[C@@H]2NC)[C@@H](N/C(N)=N\[H])[C@@H]1O [streptomycin] |  |  |  | 30 µg/mL | 
CN(C)[C@@H]1C(O)=C(C(N)=O)C(=O)[C@@]2(O)C(O)=C3C(=O)c4c(O)cccc4[C@@](C)(O)[C@H]3C[C@@H]12 [tetracycline] |  | 5 µg/mL |  |  | up to 1.0 μg/ml
